Experiments:
[1] = test system: Glycine max; assay: Activity of soybean sterol C24-methyltransferase 1
[2] = Inhibition of soybean sterol C24-methyltransferase 1; parameters: species or system Glycine max
[3] = test system: Glycine max; assay: Ratio of Kcat to Kinact for soybean sterol C24-methyltransferase 1
[4] = Inhibition of sunflower sterol C24-methyltransferase 1; parameters: species or system Helianthus annuus

Row | Structure (SMILES) | Km [1] [µM] | kcat [1] [s⁻¹] | Ki [2] [µM] | Ratio [3] | Ki [4] [µM]
1 | CC(C)=CCC[C@@H](C)[C@H]1CC[C@@]2(C)[C@@H]3CC[C@H]4C(C)(C)[C@@H](O)CC[C@@]45C[C@@]35CC[C@]12C | 30 | 0.001 |  |  | 
2 | CC(C)=C(C)CC[C@@H](C)[C@H]1CC[C@@]2(C)[C@@H]3CC[C@H]4C(C)(C)[C@@H](O)CC[C@@]45C[C@@]35CC[C@]12C [CYCLOBRANOL] | 37 | 0.0001 | 25 | 0.04 | 100

Reference: ChEMBL document CHEMBL1155117, “Cyclobranol: a substrate for C25-methyl sterol side chains and potent mechanism-based inactivator of plant sterol methyltransferase” (Bioorg Med Chem Lett, 2008)
